In US9089499B2, “Para-coumaric acid or para-hydroxycinnamic acid derivatives and their use in cosmetic or dermatological compositions” (BASF Beauty Care Solutions France S.A.S., priority 2005, dated 2015):
Like-named read-outs stand apart in the source and are kept apart here.

Columns and labels:
Human tyrosinase [1] = target: T1, Human tyrosinase (Homo sapiens, UniProt P14679); assay: In vitro test of inhibition of human tyrosinase from melanocyte extracts (L-dopa/MBTH, OD 490 nm); format: biochemical; details: melanocyte extract
T1 construct: endogenous in cells; host or cells: normal human melanocytes (abdominal surgery; several donors of fair, brown and black phototypes)
T1 sequence (P14679 19-529): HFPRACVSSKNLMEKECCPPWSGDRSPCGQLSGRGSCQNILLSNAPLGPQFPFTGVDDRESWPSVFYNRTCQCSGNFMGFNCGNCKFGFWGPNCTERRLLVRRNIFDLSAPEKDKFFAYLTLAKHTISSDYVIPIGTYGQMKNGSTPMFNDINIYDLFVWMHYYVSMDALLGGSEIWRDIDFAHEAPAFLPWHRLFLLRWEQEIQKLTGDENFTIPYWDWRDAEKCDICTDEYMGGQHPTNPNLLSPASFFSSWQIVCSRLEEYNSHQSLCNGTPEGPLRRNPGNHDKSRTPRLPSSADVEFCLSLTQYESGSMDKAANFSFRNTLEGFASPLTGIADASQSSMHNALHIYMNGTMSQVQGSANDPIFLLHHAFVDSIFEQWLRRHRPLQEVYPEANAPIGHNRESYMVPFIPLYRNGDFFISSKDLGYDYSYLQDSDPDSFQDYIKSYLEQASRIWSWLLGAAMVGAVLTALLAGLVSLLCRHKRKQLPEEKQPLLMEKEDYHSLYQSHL

Human tyrosinase [2] = target: T1, Human tyrosinase; assay: Inhibition of human tyrosinase after 24 h application to normal human melanocytes in monolayer; format: cell-based; details: for inhibition at 1000 µM: 10^−3 M
normal human melanocytes = assay: Cytotoxicity on normal human melanocytes, PNPP assay; format: cell-based; details: 24 hours, relative to untreated wells
[3] = Antiradical activity, acellular DPPH model; details: DPPH 30 minutes, absorbance 520 nm
eye of rabbits = assay: Ocular irritation in rabbits; format: in vivo; details: 10% in a 0.5% xanthan gel; pure, 0.1 ml single instillation, rabbit eye
Procedure: The preparations described above were instilled pure, in a single application, at a rate of 0.1 ml, into the eye of 3 rabbits according to the method recommenced by the OCDE Directive No. 405 of 24 February 1987 concerning the study of the “acute irritant/corrosive effect on the eyes”.

in vivo = details: both, rat, po
Procedure: (§1) The toxicology tests were performed on the compound obtained according to Example 1 incorporated at 10% into a 0.5% xanthan gel, by ocular evaluation on rabbits, by studying the absence of abnormal toxicity via single oral administration to rats, and by studying the sensitizing power on guinea pigs.
(§2) The preparations described were administered in a single portion orally at a dose of 2 g/kg of body weight, to 5 male rats and 5 female rats according to a protocol inspired by the OCDE Directive No. 401 of 24 February 1987 and adapted to cosmetic products.

rats = assay: in vivo; details: both, rat, po
Procedure: as §1, §2

guinea pigs = assay: Skin sensitization potential in guinea pigs (Magnusson and Kligmann maximization test); format: in vivo; details: 10% in a 0.5% xanthan gel
Description: The preparations described are subjected to the maximization test described by Magnusson and Kligmann, which protocol is in accordance with the OCDE guideline No. 406.

COc1cc(/C=C/C(=O)NCCc2ccc(O)c(O)c2)ccc1O [Example 1, N-trans-feruloyldopamine]
inhibition at 100 µM (Human tyrosinase [1]; 10^−4M, read-out: Inhibition of human tyrosinase, percentage of inhibition, Mean 10^−4M): 0%
inhibition at 10 µM (Human tyrosinase [1]; 10^−5M, read-out: Inhibition of human tyrosinase, percentage of inhibition, Mean 10^−5M): 0%
inhibition at 100 µM (Human tyrosinase [2]; 10^−4M, 24 hours, read-out: Inhibition of human tyrosinase after application to normal human melanocytes, percentage of inhibition, Mean 10^−4M): 62.3%
inhibition at 10 µM (Human tyrosinase [2]; 10^−5M, 24 hours, read-out: Inhibition of human tyrosinase after application to normal human melanocytes, percentage of inhibition, Mean 10^−5M): 29.4%
inhibition at 1000 µM (Human tyrosinase [2]; B103, Donor B, brown phototype, read-out: Inhibition of tyrosinase, Mean Donor B, 10^−3 M): 87.2%
inhibition at 100 µM (Human tyrosinase [2]; B104, Donor B, brown phototype, 10^−4 M, read-out: Inhibition of tyrosinase, Mean Donor B, 10^−4 M): 65.8%
inhibition at 100 µM (Human tyrosinase [2]; Donor 1, fair phototype, 10^−4 M, read-out: Inhibition of tyrosinase, Mean 10^−4 M, Donor 1): 63.9%
inhibition at 10 µM (Human tyrosinase [2]; Donor 1, fair phototype, 10^−5 M, read-out: Inhibition of tyrosinase, Mean 10^−5 M, Donor 1): 35.8%
inhibition at 100 µM (Human tyrosinase [2]; Donor 2, fair phototype, 10^−4 M, read-out: Inhibition of tyrosinase, Mean 10^−4 M, Donor 2): 59.9%
inhibition at 10 µM (Human tyrosinase [2]; Donor 2, fair phototype, 10^−5 M, read-out: Inhibition of tyrosinase, Mean 10^−5 M, Donor 2): 12.9%
inhibition at 100 µM (Human tyrosinase [2]; Donor 3, fair phototype, 10^−4 M, read-out: Inhibition of tyrosinase, Mean 10^−4 M, Donor 3): 50.2%
inhibition at 10 µM (Human tyrosinase [2]; Donor 3, fair phototype, 10^−5 M, read-out: Inhibition of tyrosinase, Mean 10^−5 M, Donor 3): 18.9%
inhibition at 1000 µM (Human tyrosinase [2]; Donor A, brown phototype, read-out: Inhibition of tyrosinase, Mean Donor A, 10^−3 M): 99.4%
inhibition at 100 µM (Human tyrosinase [2]; Donor A, brown phototype, 10^−4 M, read-out: Inhibition of tyrosinase, Mean Donor A, 10^−4 M): 59.2%
inhibition at 10 µM (Human tyrosinase [2]; Donor A, brown phototype, 10^−5 M, read-out: Inhibition of tyrosinase, Mean Donor A, 10^−5 M): 29.3%
inhibition at 10 µM (Human tyrosinase [2]; Donor B, brown phototype, 10^−5 M, read-out: Inhibition of tyrosinase, Mean Donor B, 10^−5 M): 20.8%
inhibition at 100 µM (Human tyrosinase [2]; Donor S, fair phototype, 10^−4 M, read-out: Inhibition of tyrosinase, Mean 10^−4 M, Donor S): 62.3%
inhibition at 10 µM (Human tyrosinase [2]; Donor S, fair phototype, 10^−5 M, read-out: Inhibition of tyrosinase, Mean 10^−5 M, Donor S): 29.4%
Percentages of viability, Mean 10^−4 M (normal human melanocytes; 10^−4 M): 94.49%
Percentages of viability, Mean 10^−5 M (normal human melanocytes; 10^−5 M): 119.83%
Antiradical activity, Mean 10^−5 M [3]: 60.01%
Ocular irritation classification (eye of rabbits): non-irritant to the eyes
LD50 (in vivo): > 2000 mg/kg
LD0 (rats): greater than 2000 mg/kg
Skin sensitization classification (guinea pigs): not sensitizing on contact with the skin
